From the kinase profiling compilation of Christmann-Franck et al. (2016)

Key:
Test in all cases: radiometric filter-binding kinase assay, Kinase HotSpot
Settings in all cases: compound 0.5 µM; ATP 10 µM
WEE1 (human) = WEE1 (human) (UniProt P30291)
PRKCG (human) = PRKCG (human) (UniProt P05129)
MST1R (human) = MST1R (human) (UniProt Q04912)
AURKB (human) = AURKB (human) (UniProt Q96GD4)
MAPK12 (human) = MAPK12 (human) (UniProt P53778)
CDK4 CCND3 (human) = CDK4 CCND3 (human) (UniProt P30281+P11802)
NEK2 (human) = NEK2 (human) (UniProt P51955)
FGFR2 (human) = FGFR2 (human) (UniProt P21802)
PRKD3 (human) = PRKD3 (human) (UniProt O94806)
SIK2 (human) = SIK2 (human) (UniProt Q9H0K1)
STK39 (human) = STK39 (human) (UniProt Q9UEW8)
ERBB4 (human) = ERBB4 (human) (UniProt Q15303)
EPHA3 (human) = EPHA3 (human) (UniProt P29320)
PIM2 (human) = PIM2 (human) (UniProt Q9P1W9)
TGFBR1 (human) = TGFBR1 (human) (UniProt P36897)
NLK (human) = NLK (human) (UniProt Q9UBE8)
CHEK1 (human) = CHEK1 (human) (UniProt O14757)
IRAK4 (human) = IRAK4 (human) (UniProt Q9NWZ3)
PRKX (human) = PRKX (human) (UniProt P51817)
YES1 (human) = YES1 (human) (UniProt P07947)
MLTK (human) = MLTK (human) (UniProt Q9NYL2)
MLTK (human), sequence (Q9NYL2 whole entry, looked up): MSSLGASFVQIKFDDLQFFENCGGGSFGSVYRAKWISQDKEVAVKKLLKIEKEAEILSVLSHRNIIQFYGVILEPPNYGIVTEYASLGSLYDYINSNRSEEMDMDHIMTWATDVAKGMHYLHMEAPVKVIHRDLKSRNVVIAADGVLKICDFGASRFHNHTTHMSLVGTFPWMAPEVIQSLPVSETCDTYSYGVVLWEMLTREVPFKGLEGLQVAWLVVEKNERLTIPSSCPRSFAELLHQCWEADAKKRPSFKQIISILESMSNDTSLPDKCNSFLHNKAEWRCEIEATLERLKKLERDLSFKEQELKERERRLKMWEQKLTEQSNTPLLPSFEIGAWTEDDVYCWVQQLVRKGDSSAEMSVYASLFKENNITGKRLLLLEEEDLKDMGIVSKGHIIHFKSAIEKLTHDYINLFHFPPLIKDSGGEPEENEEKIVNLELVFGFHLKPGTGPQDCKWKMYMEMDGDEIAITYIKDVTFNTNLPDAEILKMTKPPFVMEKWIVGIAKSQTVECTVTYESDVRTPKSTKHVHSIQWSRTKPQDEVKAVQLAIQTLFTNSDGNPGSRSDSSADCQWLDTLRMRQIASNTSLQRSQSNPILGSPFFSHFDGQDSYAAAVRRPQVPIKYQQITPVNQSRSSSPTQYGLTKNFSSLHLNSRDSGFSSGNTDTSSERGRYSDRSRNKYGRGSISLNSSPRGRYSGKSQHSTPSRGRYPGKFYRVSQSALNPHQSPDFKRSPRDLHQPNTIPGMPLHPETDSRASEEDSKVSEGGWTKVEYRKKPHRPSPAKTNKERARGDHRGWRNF

TAOK1 (human) = TAOK1 (human) (UniProt Q7L7X3)
SGK3 (human) = SGK3 (human) (UniProt Q96BR1)
SGK3 (human), sequence (Q96BR1 whole entry, looked up): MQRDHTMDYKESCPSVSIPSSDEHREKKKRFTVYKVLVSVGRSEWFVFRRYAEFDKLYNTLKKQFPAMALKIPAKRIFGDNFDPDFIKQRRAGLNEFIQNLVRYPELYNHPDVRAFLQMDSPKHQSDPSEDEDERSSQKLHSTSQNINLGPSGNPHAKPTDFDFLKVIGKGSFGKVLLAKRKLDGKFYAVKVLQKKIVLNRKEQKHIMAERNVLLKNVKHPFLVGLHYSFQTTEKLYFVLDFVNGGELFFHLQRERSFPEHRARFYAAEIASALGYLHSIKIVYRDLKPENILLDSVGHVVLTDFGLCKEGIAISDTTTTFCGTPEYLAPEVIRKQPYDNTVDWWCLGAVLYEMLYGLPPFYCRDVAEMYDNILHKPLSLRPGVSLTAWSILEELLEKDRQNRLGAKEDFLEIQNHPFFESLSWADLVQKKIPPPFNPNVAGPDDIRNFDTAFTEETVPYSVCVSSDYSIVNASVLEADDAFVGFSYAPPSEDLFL

MST4 (human) = MST4 (human) (UniProt Q9P289)
PLK3 (human) = PLK3 (human) (UniProt Q9H4B4)
PRKCA (human) = PRKCA (human) (UniProt P17252)
DAPK3 (human) = DAPK3 (human) (UniProt O43293)
NEK1 (human) = NEK1 (human) (UniProt Q96PY6)
NEK1 (human), sequence (Q96PY6 whole entry, looked up): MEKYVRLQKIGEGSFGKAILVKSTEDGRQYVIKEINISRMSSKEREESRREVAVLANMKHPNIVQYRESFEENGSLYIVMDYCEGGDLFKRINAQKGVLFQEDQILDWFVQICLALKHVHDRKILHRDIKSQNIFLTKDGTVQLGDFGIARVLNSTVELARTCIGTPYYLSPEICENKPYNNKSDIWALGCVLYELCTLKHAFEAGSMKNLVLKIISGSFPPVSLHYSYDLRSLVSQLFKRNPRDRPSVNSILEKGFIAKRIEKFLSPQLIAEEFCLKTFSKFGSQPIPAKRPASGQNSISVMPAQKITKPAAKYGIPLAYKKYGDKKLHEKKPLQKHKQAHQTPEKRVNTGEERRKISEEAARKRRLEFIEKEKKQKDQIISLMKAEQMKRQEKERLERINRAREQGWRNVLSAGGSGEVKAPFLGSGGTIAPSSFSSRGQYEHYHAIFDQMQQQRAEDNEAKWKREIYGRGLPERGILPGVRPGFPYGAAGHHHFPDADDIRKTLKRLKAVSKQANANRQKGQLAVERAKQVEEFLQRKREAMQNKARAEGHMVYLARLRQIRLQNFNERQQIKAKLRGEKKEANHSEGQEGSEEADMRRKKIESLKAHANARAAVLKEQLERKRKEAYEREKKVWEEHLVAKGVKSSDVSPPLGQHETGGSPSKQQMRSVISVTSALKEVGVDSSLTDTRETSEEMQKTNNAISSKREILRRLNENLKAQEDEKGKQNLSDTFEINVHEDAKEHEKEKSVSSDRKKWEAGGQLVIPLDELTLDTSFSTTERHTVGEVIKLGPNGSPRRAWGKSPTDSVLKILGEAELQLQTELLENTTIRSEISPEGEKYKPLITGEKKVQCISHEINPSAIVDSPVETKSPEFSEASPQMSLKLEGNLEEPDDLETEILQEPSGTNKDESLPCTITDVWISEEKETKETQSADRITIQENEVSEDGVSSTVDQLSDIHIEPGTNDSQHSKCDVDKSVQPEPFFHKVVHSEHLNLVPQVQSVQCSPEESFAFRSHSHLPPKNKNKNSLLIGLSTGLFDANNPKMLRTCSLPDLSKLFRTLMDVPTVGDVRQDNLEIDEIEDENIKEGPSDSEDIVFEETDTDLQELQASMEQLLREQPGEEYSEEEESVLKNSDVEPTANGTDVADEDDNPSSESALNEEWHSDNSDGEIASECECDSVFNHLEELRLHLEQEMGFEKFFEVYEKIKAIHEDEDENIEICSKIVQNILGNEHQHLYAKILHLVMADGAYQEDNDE

HCK (human) = HCK (human) (UniProt P08631)
EPHB4 (human) = EPHB4 (human) (UniProt P54760)
ROS1 (human) = ROS1 (human) (UniProt P08922)
MKNK2 (human) = MKNK2 (human) (UniProt Q9HBH9)
MKNK2 (human), sequence (Q9HBH9 whole entry, looked up): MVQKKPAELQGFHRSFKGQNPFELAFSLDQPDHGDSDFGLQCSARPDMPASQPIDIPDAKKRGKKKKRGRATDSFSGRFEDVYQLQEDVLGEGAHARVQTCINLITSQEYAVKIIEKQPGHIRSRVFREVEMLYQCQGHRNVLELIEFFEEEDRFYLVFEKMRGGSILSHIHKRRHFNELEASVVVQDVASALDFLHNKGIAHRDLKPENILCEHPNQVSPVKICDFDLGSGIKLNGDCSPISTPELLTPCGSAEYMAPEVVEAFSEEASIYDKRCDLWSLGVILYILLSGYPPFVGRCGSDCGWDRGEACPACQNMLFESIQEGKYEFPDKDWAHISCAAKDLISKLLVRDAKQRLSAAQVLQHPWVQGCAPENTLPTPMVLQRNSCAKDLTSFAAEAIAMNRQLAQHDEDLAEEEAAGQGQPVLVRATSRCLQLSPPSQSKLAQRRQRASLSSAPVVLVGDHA

CLK4 (human) = CLK4 (human) (UniProt Q9HAZ1)
CDK9 CCNT1 (human) = CDK9 CCNT1 (human) (UniProt P50750+O60563)
CAMK2D (human) = CAMK2D (human) (UniProt Q13557)
STK4 (human) = STK4 (human) (UniProt Q13043)
MARK1 (human) = MARK1 (human) (UniProt Q9P0L2)
CAMK1G (human) = CAMK1G (human) (UniProt Q96NX5)
CAMK1G (human), sequence (Q96NX5 whole entry, looked up): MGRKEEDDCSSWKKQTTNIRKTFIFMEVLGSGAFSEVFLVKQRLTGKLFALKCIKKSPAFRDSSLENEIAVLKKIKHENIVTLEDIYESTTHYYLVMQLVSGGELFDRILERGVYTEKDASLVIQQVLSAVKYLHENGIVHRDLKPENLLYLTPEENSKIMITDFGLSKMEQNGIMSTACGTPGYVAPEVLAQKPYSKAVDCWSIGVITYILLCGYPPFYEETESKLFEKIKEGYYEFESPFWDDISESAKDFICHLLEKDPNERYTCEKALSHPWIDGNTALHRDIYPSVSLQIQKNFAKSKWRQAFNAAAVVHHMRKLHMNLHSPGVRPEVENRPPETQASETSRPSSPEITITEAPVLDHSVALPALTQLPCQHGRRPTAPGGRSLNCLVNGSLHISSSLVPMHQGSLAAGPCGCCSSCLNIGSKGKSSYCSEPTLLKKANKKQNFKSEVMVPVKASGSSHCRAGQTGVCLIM

PAK7 (human) = PAK7 (human) (UniProt Q9P286)
PAK7 (human), sequence (Q9P286 whole entry, looked up): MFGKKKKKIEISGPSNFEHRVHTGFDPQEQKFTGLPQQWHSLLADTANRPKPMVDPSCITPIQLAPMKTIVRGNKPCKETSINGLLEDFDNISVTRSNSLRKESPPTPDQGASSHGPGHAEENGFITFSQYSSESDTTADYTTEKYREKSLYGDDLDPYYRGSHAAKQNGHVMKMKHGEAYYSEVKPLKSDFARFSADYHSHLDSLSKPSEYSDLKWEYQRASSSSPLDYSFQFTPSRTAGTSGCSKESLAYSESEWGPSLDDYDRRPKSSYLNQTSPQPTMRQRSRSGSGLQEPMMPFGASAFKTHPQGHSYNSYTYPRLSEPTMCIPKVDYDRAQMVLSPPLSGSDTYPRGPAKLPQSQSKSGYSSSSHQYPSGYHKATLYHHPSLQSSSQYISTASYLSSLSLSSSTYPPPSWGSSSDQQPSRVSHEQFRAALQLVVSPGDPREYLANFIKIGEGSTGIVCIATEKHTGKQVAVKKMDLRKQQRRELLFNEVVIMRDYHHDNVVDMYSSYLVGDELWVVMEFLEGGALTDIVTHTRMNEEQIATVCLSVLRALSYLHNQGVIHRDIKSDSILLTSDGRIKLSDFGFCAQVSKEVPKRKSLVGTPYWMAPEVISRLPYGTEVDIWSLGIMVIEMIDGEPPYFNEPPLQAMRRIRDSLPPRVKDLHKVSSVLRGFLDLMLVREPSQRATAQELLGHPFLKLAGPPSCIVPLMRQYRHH

ACVR1B (human) = ACVR1B (human) (UniProt P36896)
MYLK (human) = MYLK (human) (UniProt Q15746)
EPHB3 (human) = EPHB3 (human) (UniProt P54753)

WEE1 (human), sequence (P30291 whole entry, looked up): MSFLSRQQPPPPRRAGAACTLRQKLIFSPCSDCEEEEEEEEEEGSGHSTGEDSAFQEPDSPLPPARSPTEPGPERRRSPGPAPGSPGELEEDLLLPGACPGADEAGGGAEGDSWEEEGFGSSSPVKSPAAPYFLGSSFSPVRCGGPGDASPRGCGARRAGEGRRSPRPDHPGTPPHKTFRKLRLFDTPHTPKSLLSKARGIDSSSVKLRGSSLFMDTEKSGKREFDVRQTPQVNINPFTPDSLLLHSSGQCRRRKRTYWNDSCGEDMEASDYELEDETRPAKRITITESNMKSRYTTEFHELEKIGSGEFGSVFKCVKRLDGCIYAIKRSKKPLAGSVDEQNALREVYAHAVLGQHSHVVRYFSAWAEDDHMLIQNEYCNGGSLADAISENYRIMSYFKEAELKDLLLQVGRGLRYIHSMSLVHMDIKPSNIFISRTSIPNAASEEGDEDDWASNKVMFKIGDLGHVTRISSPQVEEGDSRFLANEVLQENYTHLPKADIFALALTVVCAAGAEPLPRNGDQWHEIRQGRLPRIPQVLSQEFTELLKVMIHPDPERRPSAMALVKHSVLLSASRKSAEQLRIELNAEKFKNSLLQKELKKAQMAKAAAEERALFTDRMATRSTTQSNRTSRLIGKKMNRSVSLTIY

COc1cc2ncc(-c3ccccc3)nc2cc1OC
residual activity (WEE1 (human)): 82.8% | residual activity (PRKCG (human)): 101% | residual activity (MST1R (human)): 84.2% | residual activity (AURKB (human)): 74.4% | residual activity (MAPK12 (human)): 95.5% | residual activity (CDK4 CCND3 (human)): 97.5% | residual activity (NEK2 (human)): 85.3% | residual activity (FGFR2 (human)): 103% | residual activity (PRKD3 (human)): 91.1% | residual activity (SIK2 (human)): 93.1% | residual activity (STK39 (human)): 88% | residual activity (ERBB4 (human)): 65.9% | residual activity (EPHA3 (human)): 86.8% | residual activity (PIM2 (human)): 101% | residual activity (TGFBR1 (human)): 101% | residual activity (NLK (human)): 89.3% | residual activity (CHEK1 (human)): 94.7% | residual activity (IRAK4 (human)): 90.6% | residual activity (PRKX (human)): 97.4% | residual activity (YES1 (human)): 96.1% | residual activity (MLTK (human)): 94.7% | residual activity (TAOK1 (human)): 104% | residual activity (SGK3 (human)): 89.7% | residual activity (MST4 (human)): 109% | residual activity (PLK3 (human)): 98.3% | residual activity (PRKCA (human)): 103% | residual activity (DAPK3 (human)): 84.7% | residual activity (NEK1 (human)): 95.9% | residual activity (HCK (human)): 96.9% | residual activity (EPHB4 (human)): 86.4% | residual activity (ROS1 (human)): 100% | residual activity (MKNK2 (human)): 86.3% | residual activity (CLK4 (human)): 102% | residual activity (CDK9 CCNT1 (human)): 83.2% | residual activity (CAMK2D (human)): 87.5% | residual activity (STK4 (human)): 96.3% | residual activity (MARK1 (human)): 92.6% | residual activity (CAMK1G (human)): 95.1% | residual activity (PAK7 (human)): 85.6% | residual activity (ACVR1B (human)): 95.2% | residual activity (MYLK (human)): 97.4% | residual activity (EPHB3 (human)): 88.6%
